Read-outs that look alike come from different tables or passages of the source.
Tests used:
MDA-MB-231 = assay: 3D spheroid (tumorosphere) formation assay, low attachment, serum-free, alamarBlue; format: cell-based; conditions: for IC50: Homo sapiens; for KRAS/HRAS mutant cell line DSS3 ratio: MDA-MB-231 vs Hs 578T 3D spheroid formation, 0.6–40 μM, numbers above bars Fig. 1A,B
Procedure: 3D spheroid formation assays were performed in 96-well low-attachment, suspension culture plates (cat. no. 655185, Cellstar, Greiner Bio-One) under serum-free condition. About 1,000 (MDA-MB-231, NCI-H358, and MIA PaCa-2) or 2,500 (Hs 578T) cells per well were seeded in 50 μl of either an RPMI medium (cat. no. 52400-025, Gibco, Thermo Fisher Scientific) (MDA-MB-231, A375, and NCI-H358) or DMEM (cat. no. 41965-039, Gibco, Thermo Fisher Scientific) (Hs 578T and MIA PaCa-2), containing 0.5% MethoCult (cat. no. SF H4636, Stemcell technologies), 1x B27 (cat. no. 17504044, Gibco, Thermo Fisher Scientific), 25 ng/ml EGF (cat. no. E9644, Sigma-Aldrich), and 25 ng/ml FGF (cat. no. RP-8628, Thermo Fisher Scientific). Cells were cultured for 3 days and then treated with compounds or vehicle control (DMSO 0.1% v/v in growth medium) for another 3 days. The cells were supplemented with a fresh growth medium on the third day together with the drug treatment. For knockdown experiments, cells were seeded in 12-well plates and treated with either 50 nM scrambled siRNA (cat. no. 1022076, QIAGEN) or indicated concentrations of siRNAs. Next day, cells were collected by trypsinization and re-plated into 96-well plates for 3D spheroid suspension culture.
Spheroid formation efficiency was analyzed by an alamarBlue assay reagent (cat. no. DAL1100, Thermo Fisher Scientific). A 10% final volume of the alamarBlue reagent was added to each well of the plate and incubated for 4 h at 37°C. Then the fluorescence intensity was measured using the FLUOstar OPTIMA plate reader (BMG Labtech, Germany) with an excitation wavelength of 560 ± 5 nm and an emission wavelength of 590 ± 5 nm.
To quantitatively profile the drug sensitivity with a more robust parameter than the IC50 or EC50 values, the drug sensitivity score (DSS) analysis was employed. DSS values are essentially normalized area under the curve (AUC) measures of dose-response inhibition data ([Yadav et al., 2014]). Drug response data files (in Excel) ready for online analysis were prepared according to the example file obtained from the DSS pipeline website, called Breeze^1 ([Potdar et al., 2020]). Either raw fluorescence intensity measurements or normalized % inhibition data (for BRET assay analysis) were uploaded.
DSS3 was employed to emphasize drugs that obtain their response area over a relatively wide dose window, as compared to drugs that show increased response only at the higher end of the concentration range. After logistic fitting of the dose-response inhibition data, the area under the curve (AUC) was determined as the exact solution. A 10% minimal activity threshold (t) was set. The maximum (Cmax) and minimum (Cmin) concentrations were used for screening of the inhibitors, with Cmax = x2 and x1 concentration with minimal activity t.

K-RasG12V/CaM = target: T1, K-RasG12V/CaM (Homo sapiens, UniProt P0DP23); assay: Rluc8-K-RasG12V/GFP2-CaM interaction BRET in HEK293-EBNA cells; format: cell-based; conditions: for IC50: 24-h exposure, A/D plasmid ratio 9/1, read-out: IC50 of Rluc8-K-RasG12V/GFP2-CaM BRET signal
T1 construct: expressed in transfected cells; host or cells: HEK293-EBNA
Procedure: BRET assays were essentially performed as described by others ([Lavoie et al., 2013]; [Bery et al., 2018]). About 100,00–150,000 HEK293-EBNA ([Meissner et al., 2001]) cells were seeded per well of a 12-well plate in 1 ml of DMEM containing 10% FBS and 2 mM L-glutamine and were grown for 24 h. Next day, Rluc8-tagged donor and GFP2-tagged acceptor constructs were transfected into cells using a jetPRIME transfection reagent (cat. no. 114-75, Polyplus). Each well was transfected with about 1 μg of plasmid DNA using 3 μl of the jetPRIME reagent. For BRET donor saturation titration experiments, the concentration of donor plasmid (25 ng) was kept constant, and the concentration of acceptor plasmid was increased from 0 to 500 ng for RasG12V BRET pairs and 0–1,000 ng for K-Ras/CaM BRET pairs. The empty pcDNA3.1(-) plasmid was used to top-up the total DNA load per transfection. After 24 h of transfection, cells were treated with compounds or vehicle control (DMSO 0.2% v/v in a growth medium) at the specified concentration for 24 h or the stipulated time period in case of the time-course experiments. The cells from one well of a 12-well plate were collected, washed, and re-plated in PBS (cat. no. 14190-094, Gibco, Thermo Fisher Scientific) on flat bottom, white 96-well plates (cat. no. 236108, Nunc, Thermo Fisher Scientific) as four technical replicates containing 90 μl of cell suspension per well. Then fluorescence intensity followed by BRET readings were carried out on a Clariostar (BMG Labtech) plate reader at 25°C. The fluorescence intensity (RFU) of GFP2 was measured with excitation at 405 ± 10 nm and emission 515 ± 10 nm; it is proportional to the acceptor concentration [acceptor]. BRET readings were taken well by well by adding 10 μl of 100 μM coelenterazine 400a (cat. no. C-320, GoldBio), the Rluc8 substrate to each well (final concentration of 10 μM) using the injector present in the plate reader. Luminescence emission intensities were simultaneously recorded at 410 ± 40 nm (RLU, proportional to [donor]) and 515 ± 15 nm (BRET signal).
The raw BRET ratio was calculated as the BRET signal measured at 515 nm divided by the emission signal measured at 410 nm (RLU). The BRET ratio was obtained by subtracting the raw BRET ratio by a background BRET signal measured for cells expressing only the donor ([Bacart et al., 2008]) as indicated in the formula below:
For BRET donor saturation titration experiments, the BRET ratio was plotted against the [acceptor]/[donor] ratio. Technical repeat data points were averaged, and data points from all biological repeats were collected into one graph for subsequent fitting. The BRET ratio vs. relative expression data were fitted using a binding saturation equation in the Prism (GraphPad) software to obtain BRETmax and BRET50 using the equation y=BRETmax×x/BRET50+x , where x is the relative expression and y is the BRET ratio. BRETmax represents the maximum saturation BRET signal and depends on the structural parameters (distance, orientation) of the BRET complex. BRET50 corresponds to the ratio of the acceptor construct over the donor construct required to attain 50% of the maximum BRET signal and is a measure of the effective relative affinity between the interacting BRET pair ([Marullo and Bouvier, 2007]).

calmodulin (CaM) = calmodulin (CaM) (Bos taurus, UniProt P62157); assay: Fluorescence polarization assay, displacement of F-PMCA peptide from CaM; conditions: for kinact/KI: read-out: k2/Ki second-order rate constant
Procedure: Compounds were threefold-diluted in an assay buffer (20 mM Tris Cl pH 7.5, 50 mM NaCl, 1 mM CaCl2, and 0.005% Tween 20), and a complex of 100 nM CaM and 10 nM F-PMCA peptide was added. […] Then the plate was incubated overnight at 4°C, and the next day, final readings were taken after a total of 24 h incubation. The fluorescence anisotropy was calculated and plotted against the logarithm of the compound concentration and fit to the log inhibitor vs. response–variable slope (four parameters) equation in Prism (GraphPad).
The potency and selectivity of a covalent inhibitor are governed by two parameters, namely, Ki, the dissociation constant of the initial non-covalent complex, and k2, the rate of the subsequent covalent bond-forming reaction as given in the chemical equation
E and I denote a protein target and its covalent inhibitor, respectively. E ⋅ I is the initial non-covalent complex, and E – I is the final covalent complex. […] This was repeated for several inhibitor concentrations. Then, kobs was plotted against the concentration of the inhibitor, and the data were fit to a hyperbolic equation kobs=k2×[I]/Ki+[I] to obtain Ki and k2. The ratio of k2/Ki represents the second-order rate constant of the reaction of the covalent inhibitor with the target.

[1] = 72 h, MDA-MB-231 (K-RasG13D) 3D tumorosphere, 3 days treatment, read-out: IC50
[2] = MDA-MB-231 3D tumorosphere, log scale, read-out: logIC50 ± SD (converted)

Compound | IC50 (MDA-MB-231; [1]) [µM] | IC50 (MDA-MB-231; [2]) [µM] | KRAS/HRAS mutant cell line DSS3 ratio (MDA-MB-231) | IC50 (K-RasG12V/CaM) [µM] | effect on Rluc8-K-RasG12V/GFP2-CaM BRET signal, single concentration (K-RasG12V/CaM; calmidazolium 20 μM, prostratin 20 μM, OphA 5 μM) | Ki (calmodulin (CaM)) [µM] | kinact/KI (calmodulin (CaM)) [M⁻¹ s⁻¹] | Kd (calmodulin (CaM)) [µM] | affinity difference between Calmirasone1 and calmidazolium (calmodulin (CaM); Kd 0.87 μM vs […]) [fold] | affinity for CaM relative to OphA (calmodulin (CaM); after 24-h incubation, higher affinity than OphA)
CC(C)=C[C@H]1C[C@H](C)[C@]2(CC[C@]3(C)C[C@H]4[C@H](C(=O)C[C@@]4(C)O)/C(C=O)=C\C[C@H]32)O1 [OphA, Ophiobolin A, reference compound] | 0.3 | 0.288 | 3.1 | 12 ± 2 | significantly reduced the BRET signal | 79 | 3.89 |  |  | 
CC(C)c1ccc2cc(C(F)(F)F)c(=O)c3c(N4CCCCC4)c(C=O)c(c1)c23 [Compound 1] | 12 | 12 | 4.1 | 31 ± 2 |  | 52 | 2.78 | 0.87 | 64 | fourfold
